# Assay results reported in patent publication US10660967B2, “Curcumin conjugates and methods of use thereof” (priority 2016, dated 2020).
# System: carrageenan induced paw edema
# Experiment: Anti-inflammatory activity: acute carrageenan induced paw edema in rats
# Assay type: in vivo, Wister rats
# Conditions: 10 mg kg^−1 indomethacin mol equivalent; for % inhibition of edema / Mean edema thickness: intraperitoneally; for Mean edema thickness: mean ± SE; for Potency (% inhibition of edema relative to that of indomethacin reference standard): at 4 h effect
# Procedure: The anti-inflammatory activity of the tested compounds was determined in vivo by the acute carrageenan induced paw edema standard method in rats. See, Naumov, et al., Bioorg. Med. Chem. Lett, 25: 2314-2320 (2015), Tiwari, et al., Org. Biomol. Chem, 12: 7238-7249 (2014), Girgis, et al., Eur. J. Med. Chem, 50: 1-8 (2012), Barsoum, et al., Eur. J. Med. Chem, 44: 2172-2177 (2009), Girgis, et al., Eur. J. Med. Chem, 44: 1972-1977 (2009), Girgis, et al., Eur. J. Med. Chem, 44: 1257-1264 (2009), Girgis, et al., Eur. J. Med. Chem, 44: 91-100 (2009), Girgis, et al., Eur. J. Med. Chem, 43: 2116-2121 (2008), Girgis, et al., Bioorg. Med. Chem, 14: 8527-8532 (2006), and Barsoum, et al., Bioorg. Med. Chem, 14: 3929-3937 (2006).
# Adult Wister rats of either sex (pregnant female animals were excluded) weighing 120-150 g were divided into 18 groups of 6 animals each. […] The control group was given DMSO only. Carrageenan paw edema was induced by subcutaneous injection of freshly prepared 1% solution of carrageenan in saline (0.9%, 0.1 ml per rat) into subplantar tissue of the right hind paw of rats. The thickness of the paw was measured (in mm) after successive time intervals (1, 2,3,4 and 24 h) and compared with the initial hind paw thickness of each rat for determining the edema thickness. Data were collected, checked, revised and analyzed. Quantitative variables from normal distribution were expressed as means±SE “standard error”. The anti-inflammatory activity was expressed as percentage inhibition of edema thickness in treated animals in comparison with the control group according to eqn. (1)
# Where, Vc and Vt are the mean of edema paw thickness for the control and tested compound treated animal groups, respectively.
SMILES,% inhibition of edema (1 h) [%],Mean edema thickness (1 h) [mm],% inhibition of edema (2 h) [%],Mean edema thickness (2 h) [mm],% inhibition of edema (3 h) [%],Mean edema thickness (3 h) [mm],% inhibition of edema (4 h) [%],Mean edema thickness (4 h) [mm],% inhibition of edema (24 h) [%],Mean edema thickness (24 h) [mm],Potency (% inhibition of edema relative to that of indomethacin reference standard)
COc1cc(/C=C/C(=O)CC(=O)/C=C/c2ccc(OC(=O)[C@@H](C)NC(=O)OC(C)(C)C)c(OC)c2)ccc1OC(=O)[C@@H](C)NC(=O)OC(C)(C)C [Compound 26],22,1.87 ± 0.13,29,1.46 ± 0.21,39,1.09 ± 0.11,42,0.81 ± 0.08,37,0.52 ± 0.05,48
COc1cc(/C=C/C(=O)CC(=O)/C=C/c2ccc(OC(=O)CCNC(=O)OC(C)(C)C)c(OC)c2)ccc1OC(=O)CCNC(=O)OC(C)(C)C [Compound 27],31,1.66 ± 0.19,33,1.38 ± 0.11,45,0.99 ± 0.12,61,0.55 ± 0.07,28,0.60 ± 0.03,70
COc1cc(/C=C/C(=O)CC(=O)/C=C/c2ccc(OC(=O)[C@H](CCSC)NC(=O)OC(C)(C)C)c(OC)c2)ccc1OC(=O)[C@H](CCSC)NC(=O)OC(C)(C)C [Compound 28],34,1.59 ± 0.21,36,1.31 ± 0.18,44,1.01 ± 0.17,88,0.17 ± 0.02,23,0.64 ± 0.05,101
COc1cc(/C=C/C(=O)CC(=O)/C=C/c2ccc(OC(=O)[C@@H](CCSC)NC(=O)OC(C)(C)C)c(OC)c2)ccc1OC(=O)[C@@H](CCSC)NC(=O)OC(C)(C)C [Compound 29],58,1.01 ± 0.14,69,0.63 ± 0.11,74,0.47 ± 0.08,89,0.15 ± 0.06,41,0.49 ± 0.09,102
COc1cc(/C=C/C(=O)CC(=O)/C=C/c2ccc(OC(=O)[C@@H](NC(=O)OC(C)(C)C)C(C)C)c(OC)c2)ccc1OC(=O)[C@@H](NC(=O)OC(C)(C)C)C(C)C [Compound 30],13,2.09 ± 0.21,24,1.57 ± 0.19,25,1.34 ± 0.11,43,0.80 ± 0.08,30,0.58 ± 0.10,49
CC[C@H](C)[C@H](NC(=O)OC(C)(C)C)C(=O)Oc1ccc(/C=C/C(=O)CC(=O)/C=C/c2ccc(OC(=O)[C@@H](NC(=O)OC(C)(C)C)[C@@H](C)CC)c(OC)c2)cc1OC [Compound 31],33,1.61 ± 0.11,38,1.27 ± 0.07,49,0.91 ± 0.05,51,0.69 ± 0.02,41,0.49 ± 0.03,59
COc1cc(/C=C/C(=O)CC(=O)/C=C/c2ccc(OC(=O)[C@H](CCC(N)=O)NC(=O)OC(C)(C)C)c(OC)c2)ccc1OC(=O)[C@H](CCC(N)=O)NC(=O)OC(C)(C)C [Compound 32],10,2.16 ± 0.17,16,1.73 ± 0.09,32,1.22 ± 0.12,41,0.83 ± 0.06,57,0.36 ± 0.02,47
COc1cc(/C=C/C(=O)CC(=O)/C=C/c2ccc(OC(=O)CN)c(OC)c2)ccc1OC(=O)CN.Cl.Cl [Compound 33],66,0.82 ± 0.09,67,0.69 ± 0.03,74,0.46 ± 0.03,88,0.17 ± 0.01,42,0.48 ± 0.03,101
COc1cc(/C=C/C(=O)CC(=O)/C=C/c2ccc(OC(=O)[C@@H](N)Cc3ccccc3)c(OC)c2)ccc1OC(=O)[C@@H](N)Cc1ccccc1.Cl.Cl [Compound 34],46,1.29 ± 0.14,51,1.01 ± 0.11,63,0.66 ± 0.08,84,0.22 ± 0.03,20,0.66 ± 0.04,97
COc1cc(/C=C/C(=O)CC(=O)/C=C/c2ccc(OC(=O)[C@H](C)N)c(OC)c2)ccc1OC(=O)[C@H](C)N.Cl.Cl [Compound 35],37,1.51 ± 0.12,42,1.19 ± 0.10,53,0.85 ± 0.09,66,0.47 ± 0.04,16,0.70 ± 0.06,76
COc1cc(/C=C/C(=O)CC(=O)/C=C/c2ccc(OC(=O)C(C)N)c(OC)c2)ccc1OC(=O)C(C)N.Cl.Cl (centres unmarked) [Compound 36],54,1.11 ± 0.08,54,0.94 ± 0.09,55,0.81 ± 0.05,84,0.22 ± 0.02,28,0.60 ± 0.06,97
COc1cc(/C=C/C(=O)CC(=O)/C=C/c2ccc(OC(=O)[C@@H](C)N)c(OC)c2)ccc1OC(=O)[C@@H](C)N.Cl.Cl [Compound 37],61,0.95 ± 0.11,62,0.79 ± 0.13,74,0.46 ± 0.09,96,0.06 ± 0.01,29,0.59 ± 0.07,110
COc1cc(/C=C/C(=O)CC(=O)/C=C/c2ccc(OC(=O)CCN)c(OC)c2)ccc1OC(=O)CCN.Cl.Cl [Compound 38],69,0.74 ± 0.09,71,0.60 ± 0.06,77,0.42 ± 0.03,89,0.16 ± 0.04,72,0.23 ± 0.01,102
